Test [1] deals with SDF-1. Kind of test: SDF-1 plasma levels in injected mice (ELISA). The format is in vivo, mouse. As to conditions: 5 mg/kg s.c., compared with mice injected with PBS. The protocol:
SDF-1 levels in tested samples were determined by ELISA as described (Kalinkovich, A., et al., 2006) where the K15C monoclonal antibodies (mAb, INRA, Paris, France) recognizing the first three amino acids of SDF-1 were utilized as a capture Ab (10 μg/mL) in order to measure levels of intact, non-cleaved SDF-1. Levels of basic FGF (bFGF) and HGF in tested samples were determined by using corresponding capture mAbs and polyclonal biotynilated Abs (R&D Systems) as recommended by the manufacturer. In order to examine SDF-1, bFGF and HGF levels in cell supernatants, MS-5, MBA-15 and MG-63 cells were seeded in 24-well Costar wells and cultivated in RPMI 1640 or αMEM Eagle medium, respectively, with 10% FCS. When the cells reached confluence, the medium was changed to serum free medium and cells were cultivated for additional 6 hrs in the presence of various concentrations of the peptides. Medium samples were collected and centrifuged 10 min at 6000×g at 4° C. to remove cell debris. Supernatants were collected and kept at −70° C. until tested.

Test [2] has as its target T1, CXCR4 (Homo sapiens, UniProt P61073).
T1 construct: endogenous in cells; host or cells: human cord blood CD34+ cells, human pre-B-ALL G2 cells, U937 and HL-60 cells
Briefly: CXCR4 membrane expression (flow cytometry). The format is cell-based. To be noted: human cord blood CD34+ cells, 1 or 10 μM, 3 hrs. The procedure: FIGS. 10A-10C. TL-1 and cTL1 down-regulate CXCR4 expression on human cord blood CD34^+ and G2 cells. Human cord blood CD34^+ and G2 cells were incubated with 1 or 10 μM TL-1 or cyclic TL-1 for 3 hrs or left untreated (UT), washed, stained with CXCR4 and CCR5 Ab and analyzed by flow cytometry. Representative histograms from 3 separate experiments are shown. FIG. 10A—effect of TL-1 on CXCR4 expression. FIG. 10B—effect of cTL-1 on CXCR4 expression. FIG. 10C—effects of TL-1 and cTL-1 on CCR5 expression.
Various cell types (1×10^6/mL) were pretreated with the peptides for 3 hrs as described above, washed and then stained in staining buffer (PBS supplemented with 0.5% FCS and 0.01% sodium azide) with mouse anti-human CXCR4-PE, CCR5-FITC (R&D Systems, Minneapolis, Minn.) or CD45-FITC (ImmunoQuality Products, Groningen, The Netherlands) mAbs for 30 min at 4° C. and analyzed by flow cytometry as described (Kalinkovich, A., et al., 2006). Appropriate IgG were used as the isotype controls.
Recently, it has been shown that HBD3 could induce internalization of CXCR4 but not of CCR5 in the CEM T cells expressing both CXCR4 and CCR5 (Feng, Z. et al., 2006) implying CXCR4 specificity in HBD3 action.
In general terms: A flow cytometer gives signals particle by particle.

The test system of test [3] is C57BL/6 mice. Briefly: Mobilization assay: WBC number in peripheral blood. The class given is in vivo, mouse. The procedure:
FIG. 2. Dose-response effect of TL-1 and AK-1 on mobilization of WBC. C57BL/6 mice were s.c. injected with 1, 5 or 10 mg/kg of TL-1 or AK-1. Control mice were injected with phosphate buffered saline (PBS). After 1-1.5 h, mice were sacrificed and WBC number in the PB was calculated. Data shown are the mean±SD of 3 separate experiments. *P<0.05 compared to control.
FIG. 4. TL-1 synergizes with G-CSF to mobilize WBC. C57BL/6 mice were s.c. injected with G-CSF 2.5 μg/twice a day for four days. Eighteen hrs after the last injection mice were s.c. injected with 5 mg/kg of either TL-1, AK-1 or AMD3100 (AMD), sacrificed 1.5 h later, and the number of WBC was calculated. Control mice were injected with PBS or with TL-1, AK-1 or AMD3100 without pre-treatment with G-CSF. […]
C57BL/6 mice were injected s.c. with PBS (control), 5 mg/kg AMD3100, or one of the peptides TL-1, cyclic TL-1 and AK-1, at various doses. […] Peripheral blood (PB) was collected from mice by cardiac puncture into heparin containing tubes and the number of white blood cells (WBC) per 1 mL of blood was calculated. […] Colonies, reflecting colony-forming units (CFU), were scored after 7 days.
The cell mobilizing potential of the peptides was examined in intact C57BL/6 mice, using the protocol applied for AMD3100 (Broxmeyer, H. E., et al., 2005). First, the effect of different doses of the peptides was evaluated. […]

Peptide text beside a SMILES is read from it.

These results are taken from patent publication US9567371B2, “Short beta-defensin-derived peptides” (Yeda Research and Development Co. Ltd., priority 2009, dated 2017).

T1 sequence (P61073 whole entry): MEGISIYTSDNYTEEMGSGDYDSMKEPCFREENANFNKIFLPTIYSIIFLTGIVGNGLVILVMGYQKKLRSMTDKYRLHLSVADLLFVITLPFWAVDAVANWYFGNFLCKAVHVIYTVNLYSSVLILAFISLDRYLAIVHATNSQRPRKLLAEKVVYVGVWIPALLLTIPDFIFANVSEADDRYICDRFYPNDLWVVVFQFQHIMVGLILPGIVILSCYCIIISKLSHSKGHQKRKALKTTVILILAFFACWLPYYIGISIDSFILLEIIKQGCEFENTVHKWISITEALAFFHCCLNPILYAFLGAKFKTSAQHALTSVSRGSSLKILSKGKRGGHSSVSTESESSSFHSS

In the case of `N=C(N)NCCC[C@@H]1NC(=O)CNC(=O)[C@H](CCCNC(=N)N)NC(=O)[C@H](CCCCN)NC(=O)[C@H](CCCCN)NC(=O)[C@H](CCCNC(=N)N)NC(=O)[C@H](CCCNC(=N)N)NC(=O)[C@H](CS)NC(=O)[C@H](CS)NC(=O)[C@H](CCCCN)NC1=O` [cyclic TL-1, 1,10-cyclo[RGRKCCRRKK]] (cyclo(CCRRKKRGRK)), the SDF-1 plasma levels result in test [1] is reported as “did not induce increase”. Further, the CXCR4 expression result in test [2] is reported as “decreased CXCR4 expression”. The “WBC mobilization upon simultaneous injection with AMD3100” value in test [3] (5 mg/kg s.c. each) was “decreased its mobilizing capacity”. In addition, the “WBC mobilization, dose response” value in test [3] (all tested doses: 1, 5 and 10 mg/kg s.c.) is on record as “did not induce WBC mobilization”.
